Experimental data published in publication PMC6702328, “A VDAC1-Derived N-Terminal Peptide Inhibits Mutant SOD1-VDAC1 Interactions and Toxicity in the SOD1 Model of ALS” (Frontiers in Cellular Neuroscience, 2019).

Columns and labels:
[1] = system: NSC-34 cells; assay: Cell death, PI staining and flow cytometry, NSC-34; type: cell-based, mouse; settings: 5 h, serum-free medium, 37°C
Protocol: (§1) NSC-34 cells, a mouse motor neuron-like hybrid cell line, the A549 human lung adenocarcinoma and U-87MG human glioblastoma cell lines were incubated with the (1-26)N-Ter-Antp, D-(15-26)N-Ter-Antp, (1-20)N-Ter-Antp, (5-20)N-Ter-Antp, or (10-20)N-Ter-Antp peptides in the appropriate serum-free growth medium for 5 h at 37°C. Cells were harvested, and analyzed for cell death using propidium iodide (PI) staining and flow cytometry. For XTT, the CellTiter 96 AQueous one-solution cell proliferation assay was used to follow cell viability as described previously ([Leyton-Jaimes et al., 2016]).
(§2) NSC-34 (A), U-87MG (B), or A549 (C) cells were incubated with the indicated concentrations of (1-26)N-Ter-Antp (∙), D-(15-26) (19-26)N-Ter-Antp (▲), (1-20)N-Ter-Antp (∘), (5-20)N-Ter-Antp (□) or (10-20)N-Ter-Antp (◆) peptide for 5 h. Cell death was analyzed using PI staining and flow cytometry. […] Cell viability analysis was performed with the CellTiter 96 AQueous one-solution cell proliferation assay with ELISA at 490 nm. […] The significance of quantitative analysis of triplicates of different biological repeats (n = 3) was performed by Student’s t-test; ^∗∗P < 0.01. […] Twenty-four hours post-transfection, the cells were incubated for 5 h with (10-20)N-Ter-Antp peptide (20 μM) and then analyzed for apoptosis using acridine orange and ethidium bromide staining, as described previously ([McGahon et al., 1995]). Fluorescence microscopy images were analyzed and about 100 to 300 cells were counted for each treatment in representative microscopic fields. The significance of quantitative analysis of triplicates of different biological repeats (n = 3) was performed by one-way Anova; ^∗∗P < 0.01.

[2] = system: U-87MG cells; assay: Cell death, PI staining and flow cytometry, U-87MG; type: cell-based, human; settings: 5 h, serum-free medium, 37°C
Protocol: as §1, §2

[3] = system: A549 cells; assay: Cell death, PI staining and flow cytometry, A549; type: cell-based, human; settings: 5 h, serum-free medium, 37°C
Protocol: as §1, §2

[4] = system: NSC-34 cells transfected to express human mutant SOD1^G93A; assay: Rescue of mutant SOD1^G93A toxicity, cell viability (XTT / CellTiter 96 AQueous); type: cell-based, mouse; settings: NSC-34 cells expressing SOD1^G93A, increasing peptide concentrations, 5 h, XTT assay; n = 3
Protocol: as §1, §2
Cell viability was quantified using the XTT assay and apoptosis using acridine orange and ethidium bromide staining. […] Importantly, this effect was observed using the three non-cell death-inducing VDAC1-derived N-terminal peptides, i.e., the (1-20)-N-Ter-Antp, (5-20)-N-Ter-Antp and (10-20)-N-Ter-Antp peptides.

[5] = system: SH-SY5Y cells expressing mutant SOD1^G93A; assay: Apoptosis, acridine orange/ethidium bromide staining, SOD1^G93A; type: cell-based; settings: peptide 20 μM, 5 h, 24 h post-transfection, n = 3
Protocol: (§3) Apoptotic cell death was also analyzed using Acridine Orange (AcOr)/ethidium bromide (EtBr) staining ([McGahon et al., 1995]). Cells in 24-well plates were washed with 200 μl PBS and 10 μl of a solution containing […] in PBS was added. The cells were then visualized by fluorescence microscopy (ZOE fluorescence cell imager, Bio-Rad), images were recorded and cells at early and late apoptotic stages were counted.
as §2, with “The significance of quantitative analysis of triplicates of different biological repeats (n = 3) was performed by one-way Anova; ^∗∗P < 0.01.” left out

[6] = system: SH-SY5Y cells expressing mutant SOD1^G37R; assay: Apoptosis, acridine orange/ethidium bromide staining, SOD1^G37R; type: cell-based; settings: peptide 20 μM, 5 h, 24 h post-transfection, n = 3
Protocol: as §3
as §2, with “The significance of quantitative analysis of triplicates of different biological repeats (n = 3) was performed by one-way Anova; ^∗∗P < 0.01.” left out

[7] = system: SH-SY5Y cells expressing SOD1^G93A or SOD1^G37R; assay: Co-localization of misfolded SOD1 with VDAC1, immunostaining and confocal microscopy; type: cell-based; settings: peptide 20 μM, 5 h, 24 h post-transfection; anti-VDAC1 and B8H10 antibodies
Protocol: For immunostaining, SH-SY5Y cells (4.5 × 10^4) were grown on sterilized coverslips in 24-well plates. 30 h post-transfection, cells were fixed using 4% paraformaldehyde (PFA; diluted in PBS) for 15 min, and then washed 3 times with PBS (5 min each wash). Cells were then permeabilized with 0.3% Triton X-100 in PBS for 5 min followed by washing with PBS. Cells were then blocked for 1 h with blocking buffer (1% BSA free fatty acids diluted in PBS). Anti-VDAC1 polyclonal antibody (ab15895) and mouse anti misfolded SOD1 (B8H10, Medimabs) were incubated at room temperature for 1–2 h in a buffer of 1% BSA free fatty acids and 0.3% Triton-X100 in PBS. Following incubation with primary antibodies, cells were washed with PBS and incubated with fluorescent conjugated secondary Alexa Flour 488 anti-rabbit and Alexa flour 647 anti-mouse antibodies. The coverslips were carefully dried and mounted on slides using Immumount (Immumount^TM, Thermo). After overnight drying, images were acquired on an Olympus IX81 confocal microscope.
Twenty-four hours post-transfection, the cells were incubated for 5 h with (10-20)N-Ter-Antp peptide (20 μM) and then analyzed for co-localization using a confocal microscope. […] Scale bar, 10 μm.

[8] = biological target: T1, SOD1^G93A (Homo sapiens, UniProt P00441, G94A); assay: Microscale thermophoresis (MST) binding to SOD1^G93A
T1 construct: made in house; host or cells: sf-9 cells
T1 sequence (P00441 whole entry G94A): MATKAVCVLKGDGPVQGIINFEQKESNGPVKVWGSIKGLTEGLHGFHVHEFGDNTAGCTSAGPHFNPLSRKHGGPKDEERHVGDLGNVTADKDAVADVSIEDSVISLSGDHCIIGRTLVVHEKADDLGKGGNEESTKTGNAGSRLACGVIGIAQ
Protocol: (§4) Recombinant hSOD1^wt, hSOD1^G93A, and hSOD1^G85R were expressed in sf-9 cells and purified by hydrophobic interaction chromatography using phenyl-Sepharose 6 Fast Flow high sub (Amersham Biosciences), followed by ion exchange chromatography using a HiTrap Q-Sepharose anion exchange column (Amersham Biosciences), as described previously ([Hayward et al., 2002]).
(§5) Microscale thermophoresis analysis was performed using a NanoTemper Monolith NT.115 apparatus, as recently described ([Wienken et al., 2010]; [Zillner et al., 2012]). […] The results are presented as the bound fraction, calculated as follows: fraction bound 100 × (F − Fmin)/(Fmax − Fmin).
(§6) MST measures any variation in the thermal movement of a fluorescently labeled binding partner. The subsequent fluorescence depletion in a heated spot of the protein solution is measured as a function of increasing interacting partner concentration, with dissociation constants (KD) values being derived from the depletion curves ([Wienken et al., 2010]; Figure 1D).
(§7) Molecular weight standards are presented. […] After 20 min of incubation, 3–5 μl aliquots were loaded into MST-grade glass capillaries (NanoTemper Technologies) and thermophoresis was measured with a NanoTemper Monolith-NT115 system. The percentage change in normalized fluorescence (ΔF Norm %) is plotted as a function of protein concentration. […]

[9] = biological target: T2, SOD1^WT (Homo sapiens, UniProt P00441); assay: Microscale thermophoresis (MST) binding to SOD1^WT; settings: read-out: EC50 (binding affinity, dissociation constant) of peptide to SOD1^WT
T2 construct: made in house; host or cells: sf-9 cells
T2 sequence (P00441 whole entry): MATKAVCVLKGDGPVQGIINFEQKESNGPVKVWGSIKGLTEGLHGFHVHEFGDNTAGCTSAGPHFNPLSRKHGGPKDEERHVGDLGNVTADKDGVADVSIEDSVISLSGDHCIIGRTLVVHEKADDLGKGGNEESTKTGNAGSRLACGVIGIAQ
Protocol: as §4, §5, §6, §7

[10] = biological target: T3, SOD1^G85R (Homo sapiens, UniProt P00441, G86R); assay: Microscale thermophoresis (MST) binding to SOD1^G85R; settings: fluorescently labeled SOD1^G85R 230 nM, peptide 0.001–50 μM, 10 mM HEPES pH 7.4, 20 min, duplicate reads of triplicate experiments, read-out: EC50 (binding affinity, dissociation constant) of peptide to SOD1^G85R
T3 construct: made in house; host or cells: sf-9 cells
T3 sequence (P00441 whole entry G86R): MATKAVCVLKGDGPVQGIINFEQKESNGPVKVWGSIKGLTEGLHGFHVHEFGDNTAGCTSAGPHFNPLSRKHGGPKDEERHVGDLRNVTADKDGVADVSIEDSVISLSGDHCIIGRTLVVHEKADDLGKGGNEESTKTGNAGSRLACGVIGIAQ
Protocol: as §4, §5, §6, §7

[11] = biological target: T4, recombinant full length VDAC1 (Mus musculus, UniProt Q60932); assay: Channel conductance of full length VDAC1 reconstituted into a planar lipid bilayer; type: biochemical, murine; settings: for Conductance, VDAC1 + SOD1: planar lipid bilayer, after addition of 40 μg/ml SOD1, mean ± SEM, SEM
T4 construct: inferred from pET21a vector, XhoI cloning and Ni-NTA purification) (C); made in house; host or cells: Escherichia coli BL21(DE3)
T4 sequence (Q60932 14-296): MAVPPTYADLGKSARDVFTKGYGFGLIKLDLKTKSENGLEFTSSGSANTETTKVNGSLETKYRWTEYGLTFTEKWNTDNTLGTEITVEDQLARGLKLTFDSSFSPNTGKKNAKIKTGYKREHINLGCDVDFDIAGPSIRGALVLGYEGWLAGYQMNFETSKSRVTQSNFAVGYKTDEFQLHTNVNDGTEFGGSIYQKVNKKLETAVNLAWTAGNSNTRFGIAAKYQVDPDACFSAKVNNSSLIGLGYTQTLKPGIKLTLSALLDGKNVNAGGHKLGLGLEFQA
Protocol: (§8) Protein expression was induced for 3 h using 1 mM isopropyl-β-D-thiogalactopyranoside (IPTG; Sigma). Proteins were purified on agarose-packed nickel-nitrilotriacetic acid resin (Ni-NTA; Qiagen) in the presence of 8 M urea. Refolding of the eluted protein was performed essentially as described previously ([Hiller et al., 2008]).
Currents were recorded under voltage-clamp conditions before and 5 min after the addition of 40 μg of recombinant hSOD1^wt, hSOD1^G93A, or hSOD1^G85R to the cis compartment using a Bilayer Clamp BC-535B amplifier (Warner Instrument, Hamden, CT, United States). Current amplitude histograms were prepared using AxoGraph X software. […] Relative conductance-voltage plots were prepared using Microsoft Excel software.
Relative conductance (conductance/maximal conductance) was determined as the average steady-state conductance at a given voltage normalized to the conductance at 10 mV, considered the maximal conductance.

[12] = biological target: T5, ΔN-VDAC1 (Mus musculus, UniProt Q60932); assay: Channel conductance of N-terminally truncated VDAC1 reconstituted into a planar lipid bilayer; type: biochemical, murine; settings: after addition of 40 μg/ml SOD1, mean ± SEM
T5 construct: inferred from pET21a vector, XhoI cloning and Ni-NTA purification) (C); made in house; host or cells: Escherichia coli BL21(DE3)
T5 sequence (Q60932 40-296, stated change not applied): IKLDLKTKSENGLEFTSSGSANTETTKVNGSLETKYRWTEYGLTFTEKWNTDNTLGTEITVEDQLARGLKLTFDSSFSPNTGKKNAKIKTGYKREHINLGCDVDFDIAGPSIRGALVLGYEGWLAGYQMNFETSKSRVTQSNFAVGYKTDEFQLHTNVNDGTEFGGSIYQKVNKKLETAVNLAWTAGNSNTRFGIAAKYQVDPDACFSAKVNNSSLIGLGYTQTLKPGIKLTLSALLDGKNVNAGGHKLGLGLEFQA
Protocol: as §8
The reconstitution of recombinant WT or ΔN-VDAC1 into a planar lipid bilayer (PLB) prepared from soybean asolectin, and subsequent single channel current recordings and data analysis were carried out as described previously ([Gincel et al., 2001]). Currents were recorded under voltage-clamp conditions before and 5 min after the addition of 40 μg of recombinant hSOD1^wt, hSOD1^G93A, or hSOD1^G85R to the cis compartment using a Bilayer Clamp BC-535B amplifier (Warner Instrument, Hamden, CT, United States). Current amplitude histograms were prepared using AxoGraph X software. Relative conductance was determined as the average steady-state conductance at a given voltage normalized to the conductance at 10 mV, the maximal conductance. Relative conductance-voltage plots were prepared using Microsoft Excel software.
(C) Relative conductance of ΔN-VDAC1 as a function of voltage in a step from 60 to –60 mV before (▲) and after addition of SOD1^WT (Δ). Relative conductance (conductance/maximal conductance) was determined as the average steady-state conductance at a given voltage normalized to the conductance at 10 mV, taken as the maximal conductance. […] (E–H) Similar experiments as in (A–D), except that mutant SOD1^G93A was used. (I–L) Similar experiments as in (A–D), except that mutant SOD1^G85R was used.

Conductance, ΔN-VDAC1 + SOD1 [12]	Compound	Cell death induction in NSC-34 cells [1]	Cell death induction in U-87MG cells [2]	Cell death induction in A549 cells [3]	other results
	1-MAVPPTYADLGKSARDVFTKG YGFGL-26- RQIKIWFQNRRMKWKK [(1-26)-N-Ter-Antp]	induced massive cell death	induced massive cell death	induced massive cell death	
	5-PTYADLGKSARDVFTK-20- RQIKIWFQNRRMKWKK [(5-20)-N-Ter-Antp, like (1-20)-N-Ter-Antp but shortened by four amino acids at the N-terminus]	could not induce cell death	could not induce cell death	could not induce cell death	Effect on SOD1^G93A toxicity (cell viability) [4]: reduced the toxic effect of SOD1^G93A in a concentration-dependent manner
	10-LGKSARDVFTK-20- RQIKIWFQNRRMKWKK [(10-20)-N-Ter-Antp, like (1-20)-N-Ter-Antp but shortened by nine amino acids at the N-terminus]	could not induce cell death	could not induce cell death	could not induce cell death	Effect on SOD1^G93A toxicity (cell viability) [4]: reduced the toxic effect of SOD1^G93A in a concentration-dependent manner; decrease of SOD1^G93A-mediated cell death [5]: 68%; decrease of SOD1^G37R-mediated cell death [6]: 81%; Co-localization of misfolded SOD1 with VDAC1 [7]: co-localization was greatly eliminated
	14-RDVFTKGYGFGL-26- RQIKIWFQNRRMKWKK [D-(15-26)-N-Ter-Antp]	induced massive cell death	induced massive cell death	induced massive cell death	
	159-ETAKSRVTQSNFAVGYKT-177 [LP3, reference compound]				Binding to mutant SOD1 compared with the (1-26)-N-terminal peptide ([8]; MST, fluorescently labeled SOD1^G93A 675 nM, LP3 6–40 μM, HEPES buffer): significantly lower binding to mutant SOD1
	CSCC[C@H](N)C(=O)N[C@@H](C)C(=O)N[C@H](C(=O)N1CCC[C@H]1C(=O)N1CCC[C@H]1C(=O)N[C@H](C(=O)N[C@@H](Cc1ccc(O)cc1)C(=O)N[C@@H](C)C(=O)N[C@@H](CC(=O)O)C(=O)N[C@@H](CC(C)C)C(=O)NCC(=O)N[C@@H](CCCCN)C(=O)N[C@@H](CO)C(=O)N[C@@H](C)C(=O)N[C@@H](CCCNC(=N)N)C(=O)N[C@@H](CC(=O)O)C(=O)N[C@H](C(=O)N[C@@H](Cc1ccccc1)C(=O)N[C@H](C(=O)N[C@@H](CCCCN)C(=O)NCC(=O)N[C@@H](Cc1ccc(O)cc1)C(=O)NCC(=O)N[C@@H](Cc1ccccc1)C(=O)NCC(=O)N[C@@H](CC(C)C)C(=O)O)[C@@H](C)O)C(C)C)[C@@H](C)O)C(C)C [(1-26)N-Terminal]				EC50 [9]: > 200 µM; EC50 [8]: 3.75 µM; EC50 [10]: 3.75 µM
3.92 ± 0.08 nS	SOD1^G85R: recombinant human mutant SOD1 G85R expressed in sf-9 cells				Conductance, VDAC1 + SOD1 [11]: 2.3 ± 0.35 nS
3.45 ± 0.01 nS	SOD1^G93A: recombinant human mutant SOD1 G93A expressed in sf-9 cells				
3.69 ± 0.13 nS	SOD1^WT: recombinant wild type human SOD1 expressed in sf-9 cells				effect on VDAC1 current ([11]; highest concentration 60 μg/ml, current-time traces at −10 or 10 mV): had no effect on the current; Conductance, VDAC1 + SOD1 [11]: 3.84 ± 0.1 nS
